“And” between values parts separate entries of the source, which are not always exact repeats. Equal entries are not always repeated.
Legend:
mice = assay: Locomotor activity (Opto M3 activity monitor) in mice; format: in vivo, Swiss albino mice; settings: for effect on spontaneous locomotor activity, acute administration: 4 min period identical to FST, AZ-853 0.625, 1.25, 2.5 mg/kg, AZ-861 1.25 mg/kg, WAY-100635 0.3 mg/kg alone or combined; for Number of movements (individual animals): raw data
Text: The investigated compounds AZ-853 (8-(4-(4-(2-fluorophenyl)piperazin-1-yl)butyl)-1,3-dimethyl-1H-imidazo[2,1-f]purine-2,4(3H,8H)-dione and AZ-861 (1,3-dimethyl-8-(4-(4-(3-(trifluoromethyl)phenyl)piperazin-1-yl)butyl)-1H-imidazo[2,1-f]purine-2,4(3H,8H)-dione) were synthesised in the Department of Medicinal Chemistry, Faculty of Pharmacy, Jagiellonian University, and their synthesis was described earlier. AZ-853 and AZ-861 were suspended in 1% aqueous solution of Tween 80, and WAY-100635 (Sigma, Germany) was dissolved in 0.9% saline. In acute experiments, the selected compounds AZ-853 (0.156–2.5 mg/kg) and AZ-861 (0.625–2.5 mg/kg) were injected i.p. once 60 min before tests, whereas WAY-100635 (0.3 mg/kg) was administered subcutaneously (s.c.) 45 min before the test. […] In chronic experiments, AZ-853 and AZ-861 were administered i.p. once a day (between 9:00 AM and 10:00 AM) for 16 consecutive days at the minimum active doses selected from FST experiment, i.e. 0.625 and 1.25 mg/kg, respectively. […]. The control groups received 1% aqueous solution of Tween 80.
Locomotor activity was recorded with an Opto M3 multi-channel activity monitor (MultiDevice Software v.1.3, Columbus Instruments). The Swiss albino mice were individually placed in plastic cages (220 × 120 × 130 mm) for 30 min habituation period, and then the crossings of each channel (ambulation) were counted from […] to 6 min, that is the time equal to the observation period in FST. The cages were cleaned up with 70% ethanol after each mouse.
The Swiss albino mice were used in the experiment. AZ-853 and AZ-861 were injected once daily for 16 consecutive days. […]. FST, as described earlier, was performed on the 14th day just before the next treatment. To ensure that the effects observed in FST are not the result of increased motility of animals, on the 13th day, just before the next administration, the locomotor activity was measured as described earlier, from 2 to 6 min after test start, i.e. in the period identical to the duration of FST. Blood and organ collection was performed on the 17th day at 24 h after the last dose and fasting.

[1] = biological target: T1, human serotonin 5-HT1A receptor (Homo sapiens, UniProt P08908); assay: ERK1/2 phosphorylation (SureFire Alpha LISA, CHO-K1 5HT1AR cells); settings: for Emax: CHO-K1, read-out: Emax (%) ± SEM, agonist mode; for decreased efficacy as compared to 5-HT / increased potency as compared to 5-HT: p-ERK1/2
T1 sequence (P08908 1-422): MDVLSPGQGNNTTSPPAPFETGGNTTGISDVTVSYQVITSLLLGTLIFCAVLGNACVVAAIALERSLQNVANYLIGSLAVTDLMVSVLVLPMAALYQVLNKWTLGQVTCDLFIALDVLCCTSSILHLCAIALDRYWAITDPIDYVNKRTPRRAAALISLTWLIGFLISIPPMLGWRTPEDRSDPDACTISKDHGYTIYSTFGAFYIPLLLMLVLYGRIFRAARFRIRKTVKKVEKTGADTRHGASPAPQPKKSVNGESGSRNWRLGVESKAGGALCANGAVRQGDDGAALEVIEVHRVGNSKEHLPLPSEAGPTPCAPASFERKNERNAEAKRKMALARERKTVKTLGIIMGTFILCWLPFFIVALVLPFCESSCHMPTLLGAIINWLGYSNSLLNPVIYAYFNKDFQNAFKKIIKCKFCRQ
Procedure: CHO-K1 cell line transfected with 5-HT1A receptor, were commercially obtained from Perkin Elmer (Cat. No. ES-310-C, Lot Number M2W-C1). Cells were cultured according to manufacturer’s instruction. […] Geneticin-resistant clones were obtained by limit dilution and compared for receptor expression levels using a radioligand binding assay. The clone with the highest receptor expression level was selected for characterization in binding and functional assays. […] Corresponding Protein Sequence: Identical to GenBank NP_000515.2. Receptor expression level (BMAX): Estimated to be 3.7 ± 2.3 pmol/mg protein, using [3H] […] This cell line tested negative for mycoplasma.

[2] = acute, 1.25 mg/kg i.p., measured from 3 to 6 min

Row | SMILES | effect on spontaneous locomotor activity, acute administration (mice) | Number of movements (mean) (mice; acute, 0.625 mg/kg i.p., measured from 3 to 6 min) | Number of movements (individual animals) (mice; acute, 0.625 mg/kg, 3 to 6 min) | Number of movements (mean) (mice; [2]) | Number of movements (individual animals) (mice; acute, 1.25 mg/kg, 3 to 6 min) | Number of movements (mean) (mice; acute, 2.5 mg/kg i.p., measured from 3 to 6 min) | Number of movements (individual animals) (mice; acute, 2.5 mg/kg, 3 to 6 min) | Number of movements (mean) (mice; repeated, 0.625 mg/kg, 24 h after 12th administration, during 4 min) | Number of movements (individual animals) (mice; repeated, 0.625 mg/kg) | EC50 [1] | Emax [1] | decreased efficacy as compared to 5-HT [1] | increased potency as compared to 5-HT [1] | Number of movements (mean) (mice; repeated, 1.25 mg/kg, 24 h after 12th administration, during 4 min) | Number of movements (individual animals) (mice; repeated, 1.25 mg/kg)
1 | Cn1c(=O)c2c(nc3n(CCCCN4CCN(c5ccccc5F)CC4)ccn23)n(C)c1=O [AZ-853, 8-(4-(4-(2-fluorophenyl)piperazin-1-yl)butyl)-1,3-dimethyl-1H-imidazo[2,1-f]purine-2,4(3H,8H)-dione] | did not change the behavior of the animals | 127.8 | 130 and 222 and 166 and 48 and 117 and 84 | 149.8 | 200 and 171 and 90 and 115 and 119 and 204 | 156.8 | 116 and 258 and 120 and 200 and 205 and 42 | 519.5 | 820 and 399 and 687 and 223 and 606 and 272 and 558 and 551 and 418 and 661 | 6.61 nM | 60 ± 2% | 1.6 fold | 1.5 fold | – | –
2 | Cn1c(=O)c2c(nc3n(CCCCN4CCN(c5cccc(C(F)(F)F)c5)CC4)ccn23)n(C)c1=O [AZ-861, 1,3-dimethyl-8-(4-(4-(3-(trifluoromethyl)phenyl)piperazin-1-yl)butyl)-1H-imidazo[2,1-f]purine-2,4(3H,8H)-dione] | did not change the behavior of the animals | – | – | 167.3 | 185 and 251 and 120 and 156 and 217 and 91 and 151 | – | – | – | – | 1.15 nM | 76 ± 1.3% | 1.3 fold | 9.1 fold | 513.9 | 418 and 521 and 595 and 467 and 633 and 454 and 778 and 245

Reference: paper PMC7413516, “Antidepressant-like activity and safety profile evaluation of 1H-imidazo[2,1-f]purine-2,4(3H,8H)-dione derivatives as 5-HT1A receptor partial agonists” (PLoS ONE, 2020)
